Laboratory results as given in patent US20260285853A1, “COMPOUNDS AND METHODS FOR MODULATING SPLICING” (REMIX THERAPEUTICS INC., priority 2023, published 2026).
Where two headings read alike, the source gives them in different places.

Experiments:
Assay type in all cases: cell-based
[1] = tested on: HTT mRNA; assay: Splicing RT-qPCR assay (THP), Table 2A
[2] = tested on: HTT mRNA; assay: Gene panel canonical junction qPCR assay, decrease in CJ mRNA, Table 3
Method in brief: (§1)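 A673 (DMEM, 10% FBS, 15,000 cells/well) or K562 (IMDM, 10% FBS) cells treated 24 h at 37 °C with 11-point 3-fold dilutions, top 10 uM, DMSO ≤0.25%. Canonical exon-exon junction mRNA measured by RT-qPCR, normalized to GAPDH, GUSB or PPIA and DMSO (ΔΔCt); IC50 from 4-parameter logistic fit.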

[3] = tested on: MYB mRNA; assay: as above
Method in brief: as §1

[4] = tested on: MYB mRNA; assay: Splicing RT-qPCR assay (THP), Table 2A
[5] = tested on: SH-SY5Y (human neuroblastoma) cells; assay: Cell viability, Cell Titer Glo 2.0 assay; details: read-out: Viability SHSY5Y.3 GI50
Method in brief: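 Toxicity screen in SH-SY5Y cells. Compounds were serially diluted in DMSO and then in medium, giving 0.1% DMSO final. Viability was read with CellTiter-Glo 2.0 after 72 h at 37 °C, 5% CO2, against medium-only blank wells.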

[6] = Table 2A, THP, HTT alternative junction (AJ) mRNA, read-out: HTT AJ (AC50, increase in alternative junction mRNA)
[7] = Table 2A, THP, HTT canonical junction (CJ) mRNA, read-out: HTT CJ (IC50, decrease in canonical junction mRNA)
[8] = decrease in CJ mRNA levels, canonical junction qPCR, gene panel
[9] = Table 2A, THP, MYB alternative junction (AJ) mRNA, read-out: MYB AJ (AC50, increase in alternative junction mRNA)
[10] = Table 2A, THP, MYB canonical junction (CJ) mRNA, read-out: MYB CJ (IC50, decrease in canonical junction mRNA)
[11] = Table 2A (THP), AJ mRNA increase, read-out: HTT AJ (increase in alternative junction mRNA, AC50)
[12] = Table 2A (THP), CJ mRNA decrease, read-out: HTT CJ (decrease in canonical junction mRNA, IC50)
[13] = decrease in canonical junction (CJ) mRNA, gene panel qPCR, Table 3
[14] = Table 2A (THP), AJ mRNA increase, read-out: MYB AJ (increase in alternative junction mRNA, AC50)
[15] = Table 2A (THP), CJ mRNA decrease, read-out: MYB CJ (decrease in canonical junction mRNA, IC50)

Row | SMILES | AC50 [1, 6] | IC50 [1, 7] | IC50 [2, 8] | IC50 [3, 8] | AC50 [4, 9] | IC50 [4, 10] | GI50 [5] | AC50 [1, 11] | IC50 [1, 12] | IC50 [2, 13] | IC50 [3, 13] | AC50 [4, 14] | IC50 [4, 15]
1 | Cn1cc2cc(NC(=O)c3ccc(N4CCC(NC5CC5)CC4)c4cn(C)nc34)cc(Cn3ccnn3)c2n1 [Compound 823] | > 10 µM | > 10 µM | > 10 µM | 1000 to 10000 nM | 100 to 1000 nM | 1000 to 10000 nM | 1000 to 10000 nM |  |  |  |  |  | 
2 | Cn1cc2cc(NC(=O)c3ccc(N4CCC(NC5CC5)CC4)c4cn(C)nc34)cc(CNc3nccs3)c2n1 [Compound 881] | > 10 µM | 1 to 10 µM | 1 to 10 µM | 1000 to 10000 nM | 100 to 1000 nM | 1000 to 10000 nM | 1000 to 10000 nM |  |  |  |  |  | 
3 | COc1nc2c(C(=O)Nc3cc(F)c4nn(C)cc4c3)ccc(N3CCN[C@H](C)C3)c2s1 [Compound 765] | 0.1 to 1 µM | 0.1 to 1 µM | 0.1 to 1 µM | < 100 nM | < 100 nM | < 100 nM | 100 to 1000 nM |  |  |  |  |  | 
4 | C=CCNC1CCN(c2ccc(C(=O)Nc3cc(CNS(C)(=O)=O)c4nc(C)cn4c3)c3nn(C)cc23)CC1 [Compound 836, 4-[4-(allylamino)-1-piperidyl]-N-[8-(methanesulfonamidomethyl)-2-methyl-imidazo[1,2-a]pyridin-6-yl]-2-methyl-indazole-7-carboxamide] | > 10 µM | > 10 µM | > 10 µM | 100 to 1000 nM | 100 to 1000 nM | 100 to 1000 nM | 1000 to 10000 nM |  |  |  |  |  | 
5 | CC(=O)NCc1cc(NC(=O)c2ccc(N3CCC(NC4CC4)CC3)c3cn(C)nc23)cc2cn(C)nc12 [Compound 779] | > 10 µM | > 10 µM | > 10 µM | 100 to 1000 nM | 100 to 1000 nM | 100 to 1000 nM | > 10000 nM |  |  |  |  |  | 
6 | CCNC1CCN(c2cc(F)c(C(=O)Nc3cn4ccnc(C)c4n3)c3nn(C)cc23)CC1 [Compound 384, 4-[4-(ethylamino)-1-piperidyl]-6-fluoro-2-methyl-N-(8-methyl-imidazo[1,2-a]-pyrazin-2-yl)-indazole-7-carbox-amide] |  |  |  |  |  |  | > 10000 nM | > 10 µM | > 10 µM | > 10 µM | > 10000 nM | > 10000 nM | > 10000 nM
7 | Cc1cn2cc(NC(=O)c3ccc(N4C[C@@H](C)N[C@@H](C)C4)c4c3OC(F)(F)O4)cc(F)c2n1 [Compound 651, 7-[(3R,5S)-3,5-dimethylpiperazin-1-yl]-2,2-difluoro-N-(8-fluoro-2-methylimidazo[1,2-a]-pyridin-6-yl)-1,3-benzodioxole-4-carboxamide] | > 10 µM | > 10 µM | > 10 µM | > 10000 nM | > 10000 nM | > 10000 nM | > 10000 nM |  |  |  |  |  | 
8 | COc1c(NC(=O)c2ccc(N3CCC(NC4CC4)CC3)n3cc(C)nc23)cn2cc(C)nc(C)c12 [Compound 631, 5-[4-(cyclopropylamino)-1-piperidyl]-N-(8-methoxy-1,3-dimethyl-pyrrolo[1,2-a]pyrazin-7-yl)-2-methyl-imidazo[1,2-a]pyridine-8-carboxamide] | 1 to 10 µM | 1 to 10 µM | 1 to 10 µM | 1000 to 10000 nM | 1000 to 10000 nM | 1000 to 10000 nM | 1000 to 10000 nM |  |  |  |  |  | 
9 | COc1cc(N2CCC(NC3CC3)CC2)c2cn(C)nc2c1C(=O)Nc1cc(CNS(C)(=O)=O)c2nn(C)cc2c1 [Compound 853] | > 10 µM | > 10 µM | > 10 µM | > 10000 nM | > 10000 nM | > 10000 nM | > 10000 nM |  |  |  |  |  | 
10 | Cc1cn2cc(NC(=O)c3ccc(N4CCC(NC5CC5)CC4)c4cn(C)nc34)nc2c(CN(C)S(C)(=O)=O)n1 [Compound 703, 4-(4-(cyclopropylamino)piperidin-1-yl)-2-methyl-N-(6-methyl-8-((N-methylmethylsulfonamido)methyl)imidazo[1,2-a]pyrazin-2-yl)-2H-indazole-7-carboxamide 2,2,2-trifluoroacetate] | > 10 µM | > 10 µM | > 10 µM | > 10000 nM | > 10000 nM | > 10000 nM | > 10000 nM |  |  |  |  |  | 
11 | COc1c(NC(=O)c2c(F)cc(N3CC[C@@H](NC4CC4)C4(CC4)C3)c3cn(C)nc23)cn2cc(C)nc2c1F [Compound 368, 4-[(8R)-8-(cyclopropylamino)-5-azaspiro[2.5]octan-5-yl]-6-fluoro-N-(8-fluoro-7-methoxy-2-methyl-imidazo[1,2-a]pyridin-6-yl)-2-methyl-indazole-7-carboxamide] |  |  |  |  |  |  | 100 to 1000 nM | 1 to 10 µM | 1 to 10 µM | 1 to 10 µM | < 100 nM | < 100 nM | < 100 nM
12 | COc1nc2c(C(=O)Nc3cc(OC)c4nn(C)cc4c3)ccc(N3C[C@H](C)N[C@@H](C)C3)c2s1 [Compound 784, 7-((3S,5S)-3,5-dimethylpiperazin-1-yl)-2-methoxy-N-(7-methoxy-2-methyl-2H-indazol-5-yl)benzo[d]thiazole-4-carboxamide] | 0.1 to 1 µM | 0.1 to 1 µM | 0.1 to 1 µM | < 100 nM | < 100 nM | < 100 nM | < 100 nM |  |  |  |  |  | 
13 | Cc1cn2cc(NC(=O)c3c(F)cc(N4CCC(NC5CC5)CC4)c4cn(C)nc34)nc2cn1 [Compound 404, 4-(4-(cyclopropylamino)-piperidin-1-yl)-6-fluoro-2-methyl-N-(6-methylimid-azo-[1,2-a]pyrazin-2-yl)-2H-indazole-7-carbox-amide 2,2,2-trifluoro-acetate] |  |  |  |  |  |  | 100 to 1000 nM | 1 to 10 µM | > 10 µM | > 10 µM | < 100 nM | < 100 nM | < 100 nM
14 | Cc1cn2cc(NC(=O)c3ccc(N4CCC(NC5CC5)CC4)n4nc(C)nc34)cc(F)c2n1 [Compound 640, 5-[4-(cyclopropylamino)-1-piperidyl]-N-(8-fluoro-2-methyl-imidazo[1,2-a]pyridin-6-yl)-2-methyl-[1,2,4]-triazolo[1,5-a]-pyridine-8-carboxamide] | 0.1 to 1 µM | 0.1 to 1 µM | 0.1 to 1 µM | < 100 nM | < 100 nM | < 100 nM | 100 to 1000 nM |  |  |  |  |  | 
15 | Cc1cn2cc(NC(=O)c3ccc(N4CCC(NC5CC5)CC4)c4cn(C)nc34)nc2c(-c2ccns2)n1 [Compound 486, 4-(4-(cyclopropylamino)-piperidin-1-yl)-N-(8-(isothiazol-5-yl)-6-methyl-imidazo[1,2-a]-pyrazin-2-yl)-2-methyl-2H-indazole-7-carboxamide] |  |  |  |  |  |  | 1000 to 10000 nM | > 10 µM | > 10 µM | > 10 µM | > 10000 nM | > 10000 nM | > 10000 nM
16 | COc1nc(NC(=O)c2c(F)cc(N3CCC(NC4CC4)CC3)c3nc(C)sc23)cn2cc(C)nc12 [Compound 664, 4-[4-(cyclopropylamino)-1-piperidyl]-6-fluoro-N-(8-methoxy-2-methylimidazo-[1,2-a]pyrazin-6-yl)-2-methyl-1,3-benzothiazole-7-carboxamide] | 1 to 10 µM | 1 to 10 µM | 1 to 10 µM | 1000 to 10000 nM | 1000 to 10000 nM | 1000 to 10000 nM | 1000 to 10000 nM |  |  |  |  |  | 
